Results on seven compounds are retold here after patent US9579314B2 (priority 2015, dated 2017).

For test [1], the target named is Human M3 receptor (Homo sapiens, UniProt P20309). Conditions: read-out: M3 binding affinity.
Test [2] has as its target Human β2 adrenoceptor (Homo sapiens, UniProt P07550). The following applies: read-out: B2 binding affinity.

Sequence of Human β2 adrenoceptor (P07550 whole entry): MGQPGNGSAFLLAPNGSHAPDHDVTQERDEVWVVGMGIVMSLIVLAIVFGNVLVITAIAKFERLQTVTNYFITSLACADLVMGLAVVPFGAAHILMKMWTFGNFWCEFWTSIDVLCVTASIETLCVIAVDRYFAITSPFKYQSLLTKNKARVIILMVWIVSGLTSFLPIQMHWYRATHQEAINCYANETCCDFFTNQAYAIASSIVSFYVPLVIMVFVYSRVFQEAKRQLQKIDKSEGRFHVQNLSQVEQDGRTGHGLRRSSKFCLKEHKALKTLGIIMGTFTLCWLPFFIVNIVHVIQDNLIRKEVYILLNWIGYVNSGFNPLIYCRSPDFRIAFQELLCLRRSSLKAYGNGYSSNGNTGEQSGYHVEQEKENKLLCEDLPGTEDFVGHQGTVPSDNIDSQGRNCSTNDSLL
Sequence of Human M3 receptor (P20309 whole entry): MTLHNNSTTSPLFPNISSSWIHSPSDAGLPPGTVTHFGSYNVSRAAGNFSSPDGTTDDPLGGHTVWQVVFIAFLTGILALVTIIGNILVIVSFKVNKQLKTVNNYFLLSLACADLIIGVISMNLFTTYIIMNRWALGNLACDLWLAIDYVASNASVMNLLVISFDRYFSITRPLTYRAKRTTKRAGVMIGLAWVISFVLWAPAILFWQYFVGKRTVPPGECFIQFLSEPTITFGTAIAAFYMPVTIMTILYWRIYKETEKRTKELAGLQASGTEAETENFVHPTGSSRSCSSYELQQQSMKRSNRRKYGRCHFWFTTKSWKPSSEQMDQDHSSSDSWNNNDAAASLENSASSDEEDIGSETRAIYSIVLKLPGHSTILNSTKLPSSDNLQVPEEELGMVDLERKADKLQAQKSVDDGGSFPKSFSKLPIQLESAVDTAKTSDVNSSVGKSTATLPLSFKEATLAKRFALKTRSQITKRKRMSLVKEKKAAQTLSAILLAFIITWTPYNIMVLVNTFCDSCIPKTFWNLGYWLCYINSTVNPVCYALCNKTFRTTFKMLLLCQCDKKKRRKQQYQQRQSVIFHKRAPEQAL

For `Cc1ccc(C(O)(C(=O)OCC2CCN(Cc3ccccc3)CC2)c2cccc(OCCCCCNC[C@H](O)c3ccc(O)c4[nH]c(=O)ccc34)c2)cc1` (stereo partly drawn) [Compound 2, (1-benzylpiperidin-4-yl)methyl 2-hydroxy-2-(3-((5-(((R)-2-hydroxy-2-(8-hydroxy-2-oxo-1,2-dihydroquinolin-5-yl)ethyl)amino)pentyl)oxy)phenyl)-2-(p-tolyl)acetate], the IC50 in test [1] and in test [2] was 300 to 3000 pM in each case.
For `O=C(c1ccc(C(=O)N2CCC(COc3cccc([C@](O)(C(=O)OCC4CCN(Cc5ccccc5)CC4)c4ccccc4)c3)CC2)s1)N1CCC(CNC[C@H](O)c2ccc(O)c3[nH]c(=O)ccc23)CC1` [Compound 156, (1-Benzylpiperidin-4-yl)methyl (S)-2-hydroxy-2-(3-((1-(5-(4-((((R)-2-hydroxy-2-(8-hydroxy-2-oxo-1,2-dihydroquinolin-5-yl)ethyl)amino)methyl)piperidine-1-carbonyl)thiophene-2-carbonyl)piperidin-4-yl)methoxy)phenyl)-2-phenylacetate], the IC50 in test [1] and in test [2] was below 300 pM throughout.
Turning to `CN(CCNC(=O)c1ccc(CNC[C@H](O)c2ccc(O)c3[nH]c(=O)ccc23)cc1)C(=O)COc1cccc([C@](O)(C(=O)OCC2CCN(Cc3ccccc3)CC2)c2ccccc2)c1` [Compound 60, (1-benzylpiperidin-4-yl)methyl (S)-2-hydroxy-2-(3-(2-((2-(4-((((R)-2-hydroxy-2-(8-hydroxy-2-oxo-1,2-dihydroquinolin-5-yl)ethyl)amino)methyl)benzamido)ethyl)(methyl)amino)-2-oxoethoxy)phenyl)-2-phenylacetate], the IC50 in test [1] and in test [2] was 300 to 3000 pM throughout.
On to `O=C(COc1cccc([C@](O)(C(=O)OCC2CCN(Cc3ccccc3)CC2)c2ccccc2)c1)N1CCN(C(=O)c2ccc(CNC[C@H](O)c3ccc(O)c4[nH]c(=O)ccc34)cc2)CC1` [Compound 58, (1-benzylpiperidin-4-yl)methyl (S)-2-hydroxy-2-(3-(2-(4-(4-((((R)-2-hydroxy-2-(8-hydroxy-2-oxo-1,2-dihydroquinolin-5-yl)ethyl)amino)methyl)benzoyl)piperazin-1-yl)-2-oxoethoxy)phenyl)-2-phenylacetate], for which the IC50 in test [1] and in test [2] was 300 to 3000 pM each time.
For the compound `O=C(NCCCOc1cccc([C@](O)(C(=O)OCC2CCN(Cc3ccccc3)CC2)c2ccccc2)c1)c1ccc(CNC[C@H](O)c2ccc(O)c3[nH]c(=O)ccc23)c(F)c1F` [Compound 32L, (S)-(1-benzylpiperidin-4-yl)methyl 2-(3-(3-(2,3-difluoro-4-((((R)-2-hydroxy-2-(8-hydroxy-2-oxo-1,2-dihydroquinolin-5-yl)ethyl)amino)methyl)benzamido)propoxy)phenyl)-2-hydroxy-2-phenylacetate], the IC50 in test [1] was 300 to 3000 pM; in test [2], above 3000 pM.
As for `O=C(NCCc1cccc(C(O)(C(=O)OCC2CCN(Cc3ccccc3)CC2)c2ccccc2)c1)c1ccc(CNCC(O)c2ccc(O)c3[nH]c(=O)ccc23)cc1` (stereo in doubt) [Compound 39, (1-benzylpiperidin-4-yl)methyl 2-hydroxy-2-(3-(2-(4-((((R)-2-hydroxy-2-(8-hydroxy-2-oxo-1,2-dihydroquinolin-5-yl)ethyl)amino)methyl)benzamido)ethyl)phenyl)-2-phenylacetate], the IC50 in test [1] is 300 to 3000 pM; in test [2], below 300 pM.
On to `COc1cc(CNC[C@H](O)c2ccc(O)c3[nH]c(=O)ccc23)ccc1C(=O)NCCCOc1cccc([C@](O)(C(=O)OCC2CCN(Cc3ccccc3)CC2)c2ccccc2)c1` [Compound 32B, (S)-(1-benzylpiperidin-4-yl)methyl 2-hydroxy-2-(3-(3-(4-((((R)-2-hydroxy-2-(8-hydroxy-2-oxo-1,2-dihydroquinolin-5-yl)ethyl)amino)methyl)-2-methoxybenzamido)propoxy)phenyl)-2-phenylacetate], for which the IC50 in test [1] and in test [2] was below 300 pM throughout.
